In the NIST ThermoML archive (doi:10.1021/je060271a):
Numbers after ± are expanded uncertainties.

Details: Liquid, Vibrating tube method

CCCC(=O)OCC(COC(=O)CCC)(COC(=O)CCC)COC(=O)CCC [pentaerythritol tetrabutyrate]
Details	mass density [kg/m3]
283.15 K, 30442 kPa	1076 ± 1.3
283.15 K, 30478 kPa	1076.1 ± 1.3
283.15 K, 30509 kPa	1076 ± 1.3
283.15 K, 30540 kPa	1076.1 ± 1.3
283.15 K, 30577 kPa	1076.1 ± 1.3
283.15 K, 30608 kPa	1076.1 ± 1.3
283.15 K, 30639 kPa	1076.1 ± 1.3
283.15 K, 30670 kPa	1076.1 ± 1.3
283.15 K, 30707 kPa	1076.1 ± 1.3
283.15 K, 30738 kPa	1076.1 ± 1.3
283.15 K, 30775 kPa	1076.2 ± 1.3
283.15 K, 30806 kPa	1076.3 ± 1.3
283.15 K, 30838 kPa	1076.2 ± 1.3
283.15 K, 30875 kPa	1076.1 ± 1.3
283.15 K, 30906 kPa	1076.2 ± 1.3
283.15 K, 30938 kPa	1076.3 ± 1.3
283.15 K, 30975 kPa	1076.3 ± 1.3
283.15 K, 31008 kPa	1076.3 ± 1.3
283.15 K, 31040 kPa	1076.3 ± 1.3
283.15 K, 31071 kPa	1076.3 ± 1.3
283.15 K, 31110 kPa	1076.4 ± 1.3
283.15 K, 31141 kPa	1076.4 ± 1.3
283.15 K, 31179 kPa	1076.4 ± 1.3
283.15 K, 31211 kPa	1076.3 ± 1.3
283.15 K, 31243 kPa	1076.4 ± 1.3
283.15 K, 31282 kPa	1076.4 ± 1.3
283.15 K, 31314 kPa	1076.4 ± 1.3
283.15 K, 31346 kPa	1076.4 ± 1.3
283.15 K, 31385 kPa	1076.5 ± 1.3
283.15 K, 31418 kPa	1076.6 ± 1.3
283.15 K, 31450 kPa	1076.4 ± 1.3
283.15 K, 31490 kPa	1076.5 ± 1.3
283.15 K, 31523 kPa	1076.5 ± 1.3
283.15 K, 31556 kPa	1076.5 ± 1.3
283.15 K, 31595 kPa	1076.5 ± 1.3
283.15 K, 31628 kPa	1076.7 ± 1.3
283.15 K, 31662 kPa	1076.7 ± 1.3
283.15 K, 31695 kPa	1076.6 ± 1.3
283.15 K, 31735 kPa	1076.6 ± 1.3
283.15 K, 31768 kPa	1076.7 ± 1.3
283.15 K, 31807 kPa	1076.7 ± 1.3
283.15 K, 31841 kPa	1076.9 ± 1.3
283.15 K, 31875 kPa	1076.7 ± 1.3
283.15 K, 31909 kPa	1076.8 ± 1.3
283.15 K, 31949 kPa	1076.8 ± 1.3
283.15 K, 31983 kPa	1076.9 ± 1.3
283.15 K, 32023 kPa	1076.9 ± 1.3
283.15 K, 32057 kPa	1076.8 ± 1.3
283.15 K, 32092 kPa	1076.8 ± 1.3
283.15 K, 32133 kPa	1076.8 ± 1.3
283.15 K, 32167 kPa	1076.9 ± 1.3
283.15 K, 32202 kPa	1076.9 ± 1.3
283.15 K, 32236 kPa	1076.9 ± 1.3
283.15 K, 32278 kPa	1077 ± 1.3
283.15 K, 32312 kPa	1076.9 ± 1.3
283.15 K, 32347 kPa	1077 ± 1.3
283.15 K, 32390 kPa	1077 ± 1.3
283.15 K, 32417 kPa	1077.1 ± 1.3
283.15 K, 32453 kPa	1077.1 ± 1.3
283.15 K, 32494 kPa	1077.2 ± 1.3
283.15 K, 32536 kPa	1077.1 ± 1.3
283.15 K, 32572 kPa	1077.1 ± 1.3
283.15 K, 32614 kPa	1077.1 ± 1.3
283.15 K, 32650 kPa	1077 ± 1.3
283.15 K, 32692 kPa	1077.2 ± 1.3
283.15 K, 32728 kPa	1077.1 ± 1.3
283.15 K, 32764 kPa	1077.2 ± 1.3
283.15 K, 32806 kPa	1077.1 ± 1.3
283.15 K, 32845 kPa	1077.2 ± 1.3
283.15 K, 32881 kPa	1077.2 ± 1.3
283.15 K, 32918 kPa	1077.2 ± 1.3
283.15 K, 32954 kPa	1077.3 ± 1.3
283.15 K, 32998 kPa	1077.3 ± 1.3
283.15 K, 33034 kPa	1077.2 ± 1.3
283.15 K, 33071 kPa	1077.4 ± 1.3
283.15 K, 33114 kPa	1077.3 ± 1.4
283.15 K, 33151 kPa	1077.4 ± 1.4
283.15 K, 33188 kPa	1077.3 ± 1.3
283.15 K, 33232 kPa	1077.5 ± 1.4
283.15 K, 33270 kPa	1077.5 ± 1.4
283.15 K, 33308 kPa	1077.4 ± 1.4
283.15 K, 33355 kPa	1077.6 ± 1.4
283.15 K, 33391 kPa	1077.5 ± 1.4
283.15 K, 33429 kPa	1077.5 ± 1.4
283.15 K, 33473 kPa	1077.6 ± 1.4
283.15 K, 33511 kPa	1077.5 ± 1.4
283.15 K, 33548 kPa	1077.5 ± 1.4
283.15 K, 33586 kPa	1077.6 ± 1.4
283.15 K, 33631 kPa	1077.7 ± 1.4
283.15 K, 33670 kPa	1077.7 ± 1.4
283.15 K, 33708 kPa	1077.7 ± 1.4
283.15 K, 33754 kPa	1077.7 ± 1.4
283.15 K, 33792 kPa	1077.6 ± 1.4
283.15 K, 33838 kPa	1077.7 ± 1.4
283.15 K, 33878 kPa	1077.8 ± 1.4
283.15 K, 33917 kPa	1077.8 ± 1.4
283.15 K, 34179 kPa	1077.9 ± 1.4
283.15 K, 34232 kPa	1078 ± 1.4
283.15 K, 34278 kPa	1078 ± 1.4
283.15 K, 34325 kPa	1078 ± 1.4
283.15 K, 34380 kPa	1078.1 ± 1.4
283.15 K, 34408 kPa	1078.1 ± 1.4
283.15 K, 34413 kPa	1078.1 ± 1.4
283.15 K, 34443 kPa	1078.1 ± 1.4
283.15 K, 34447 kPa	1078.3 ± 1.4
283.15 K, 34450 kPa	1078 ± 1.4
283.15 K, 34451 kPa	1078 ± 1.4
283.15 K, 34455 kPa	1078.1 ± 1.4
283.15 K, 34530 kPa	1078.2 ± 1.4
283.15 K, 34544 kPa	1078.1 ± 1.4
283.15 K, 34545 kPa	1078.1 ± 1.4
283.16 K, 104.2 kPa	1059 ± 1.3
283.16 K, 104.7 kPa	1059.1 ± 1.3
283.16 K, 105.7 kPa	1059 ± 1.3
283.16 K, 107.3 kPa	1059 ± 1.3
283.16 K, 108.9 kPa	1059.1 ± 1.3
283.16 K, 113.9 kPa	1059 ± 1.3
283.16 K, 119.6 kPa	1059.1 ± 1.3
283.16 K, 129.7 kPa	1059 ± 1.3
283.16 K, 145 kPa	1059.2 ± 1.3
283.16 K, 173.9 kPa	1059.1 ± 1.3
283.16 K, 201.7 kPa	1059.2 ± 1.3
283.16 K, 220.1 kPa	1059.2 ± 1.3
283.16 K, 241.7 kPa	1059.2 ± 1.3
283.16 K, 261.3 kPa	1059.2 ± 1.3
283.16 K, 284.4 kPa	1059.2 ± 1.3
283.16 K, 305.4 kPa	1059.2 ± 1.3
283.16 K, 329.3 kPa	1059.3 ± 1.3
283.16 K, 363.7 kPa	1059.2 ± 1.3
283.16 K, 391.3 kPa	1059.1 ± 1.9
283.16 K, 432.3 kPa	1059.2 ± 1.3
283.16 K, 466.5 kPa	1059.2 ± 1.3
283.16 K, 498.2 kPa	1059.2 ± 1.3
283.16 K, 527.5 kPa	1059.2 ± 1.3
283.16 K, 550.1 kPa	1059.3 ± 1.3
283.16 K, 577.4 kPa	1059.3 ± 1.3
283.16 K, 602.2 kPa	1059.4 ± 1.3
283.16 K, 628.6 kPa	1059.3 ± 1.3
283.16 K, 657.3 kPa	1059.4 ± 1.3
283.16 K, 694.8 kPa	1059.2 ± 1.3
283.16 K, 725.1 kPa	1059.3 ± 1.3
283.16 K, 756.3 kPa	1059.4 ± 1.3
283.16 K, 786.4 kPa	1059.4 ± 1.3
283.16 K, 816.8 kPa	1059.4 ± 1.3
283.16 K, 854 kPa	1059.4 ± 1.3
283.16 K, 886.5 kPa	1059.4 ± 1.3
283.16 K, 919.6 kPa	1059.5 ± 1.3
